Data on eight compounds can be found in patent US7393824B1, “Methods of peptide preparation” (Lytix Biopharma, priority 2000, dated 2008).

Like-named read-outs stand apart in the source and are kept apart here. Residues, ends and D or L forms follow the SMILES beside them. Bounds are passed on as bounds.

Series [1] concerns Staphylococcus aureus ATCC 25923. The class given is cell-based. The protocol:
(§1) The bacterial strains used were: Escherichia coli ATCC 25922 and Staphylococcus aureus ATCC 25923. All strains were stored at −70° C. The bacteria were grown in 2% Bacto Peptone water (Difco 1807-17-4). All tests were performed with bacteria in mid-logarithmic growth phase. Determination of the minimum inhibitory concentration (MIC) of the peptides for bacterial strains were performed in 1% Bacto Peptone water. A standard microdilution technique with an inoculum of 2×10^6 CFU/ml was used. All assays were performed in triplets. Since the peptides are positively charged and therefore could adhere to the plastic wells, we controlled the actual concentration of the peptides in the solution by HPLC. There was no difference between the concentration of the peptides before or after adding the solution to the plastic wells.

Series [2] concerns Escherichia coli ATCC 25922. The class given is cell-based. The protocol:
as §1

In the next series the test system is human red blood cells. As to the kind of experiment: Hemolytic assay. Type of series: cell-based. Particulars: for EC50: red cells of human. As to the method: The hemolytic activities of the peptides were determined using fresh human red blood cells. 8 ml blood was taken from a healthy person. 4 ml blood was transferred to a polycarbonate tube containing heparin to a final concentration of 10 U/ml, and the remaining 4 ml blood was transferred to a glass tube containing EDTA with final concentration of 15% EDTA. The erythrocytes were isolated from heparin-treated blood by centrifugation in 1500 rpm for 10 min and washed three times with phosphate-buffered saline (PBS) to remove plasma and buffy coat. The cell pellet was resuspended in PBS to make the final volume of 4 ml. The peptide was diluted to a concentration of 2 mg/ml and 0.1 mg/ml. The peptide was further diluted to the concentrations as stated in Table 1. For each tube PBS was added first, then RBCs and peptide solutions. The hematocrit in the blood treated with EDTA was determined after 30 min with Sysmex K-1000, and the resuspended RBCs were diluted into 10% hematocrit. RBCs in PBS (1%) with and without peptides (Table 18) were incubated in a shaker at […] for 1 hour and then centrifuged at 4000 rpm for 5 min. The supernatant were carefully transferred to new polycarbonate tubes and the absorbance of the supernatant was measured at 540 nm. Baseline hemolysis was hemoglobin released in the presence of PBS, and 100% hemolysis was hemoglobin released in the presence of 0.1% Triton X-100.

Series [3] has as its system MRC-5 cells (normal fibroblasts). As to the kind of experiment: Fibroblast assay (MTT). The class given is cell-based. As to the method: The cells were washed with PBS and then trypsinated using 2 ml trypsin (for a 80 cm culture flask). After the cells had detached from the wall, usually after ca 3 min. of incubation, 5 ml medium with FBS were added. The cells were resuspended and counted. The cells were then transferred to a centrifugation tube and spinned at 1500 rpm for 10 min. The supernatant was removed and the cells resuspended to a concentration of 1×10^5 cells/ml. 100 ul cells suspension was transferred to each well in a 96-well microtiter plate and incubated for 25 hours to allow the cells to attach. Following the incubation, the medium containing serum was removed by turning the plate upside down against a piece of tissue. 100 ul medium without serum and L-glutamine (assay medium) was added to each well, and then removed as before. This was done to remove any trace of serum. […] The rest of the assay was done as previously described for methA, except that after the 2 hour incubation following MTT addition, 80 ul medium instead of 130 ul were removed.

For series [4], the system named is Meth A murine sarcoma cell line. The class given is cell-based. Particulars: for IC50: 4 h.
Description: Peptide solutions (0.1 ml) were added and the plates incubated at 37° C. for 30 minutes, 4 hours or 24 hours. The cytotoxicity was measured using the MTT method (Mosmann et al., J. Immunol. (1986) 136, 2348-2357).
The test system of the next series is E. coli. The conditions noted are these: from the literature; cited from earlier work.
A further series relates to fibroblasts. The conditions noted are these: cited from earlier work.
Another series concerns human erythrocytes. The conditions noted are these: cited from earlier work.
In another series the test system is S. aureus. Particulars: from the literature; cited from earlier work.

Consider `CC[C@H](C)[C@H](NC(=O)[C@H](C)NC(=O)[C@@H]1CCCN1)C(=O)N[C@@H](CCCNC(=N)N)C(=O)N[C@@H](CCCCN)C(=O)N[C@@H](C)C(=O)N[C@@H](Cc1ccccc1)C(=O)N[C@@H](CCCNC(=N)N)C(=O)N[C@@H](Cc1c[nH]c2ccccc12)C(=O)N[C@@H](C)C(=O)N[C@@H](Cc1c[nH]c2ccccc12)C(=O)N[C@@H](CCCNC(=N)N)C(=O)N[C@@H](CCSC)C(=O)N[C@@H](CC(C)C)C(=O)N[C@@H](CCCCN)C(=O)N[C@@H](CCCCN)C(=O)N[C@@H](C)C(=O)N[C@@H](C)C(=O)O` [W3→I3] (H-PAIRKAFRWAWRMLKKAA-OH; N-terminus and C-terminus assumed), for which, in [1] (Table 2), the “Mic S. Aureus” value was 2/4. For the same compound, the “Mic E-coli” value in series [2] (Table 2) is given as 2/4.
In the case of `CC[C@H](C)[C@H](NC(=O)[C@H](C)NC(=O)[C@@H](NC(=O)[C@H](CCCNC(=N)N)NC(=O)[C@H](Cc1ccccc1)NC(=O)[C@H](C)NC(=O)[C@H](CCCCN)NC(=O)[C@H](CCCNC(=N)N)NC(=O)[C@H](Cc1c[nH]c2ccccc12)NC(=O)[C@H](C)NC(=O)[C@@H]1CCCN1)[C@@H](C)CC)C(=O)N[C@@H](CCCNC(=N)N)C(=O)N[C@@H](CCSC)C(=O)N[C@@H](CC(C)C)C(=O)N[C@@H](CCCCN)C(=O)N[C@@H](CCCCN)C(=O)N[C@@H](C)C(=O)N[C@@H](C)C(=O)O` [W9,11→I9,11] (H-PAWRKAFRIAIRMLKKAA-OH; N-terminus and C-terminus assumed), the “Mic S. Aureus” value in series [1] (ATCC 25923) stood at 19 µM. Further, the “Mic E-coli” value in series [2] (ATCC 25922) was found to be 35 µM. In the series with human red blood cells, this compound showed an EC50 of 284 µM. In addition, the 50% inhibitory concentration (IC50) in series [3] is 26 µM; in series [4] it was 22 µM.
With `CSCC[C@H](NC(=O)[C@H](CCCNC(=N)N)NC(=O)[C@H](C)NC(=O)[C@H](C)NC(=O)[C@H](Cc1c[nH]c2ccccc12)NC(=O)[C@H](CCCNC(=N)N)NC(=O)[C@H](Cc1ccccc1)NC(=O)[C@H](C)NC(=O)[C@H](CCCCN)NC(=O)[C@H](CCCNC(=N)N)NC(=O)[C@H](Cc1c[nH]c2ccccc12)NC(=O)[C@H](C)NC(=O)[C@@H]1CCCN1)C(=O)N[C@@H](CC(C)C)C(=O)N[C@@H](CCCCN)C(=O)N[C@@H](CCCCN)C(=O)N[C@@H](C)C(=O)N[C@@H](C)C(=O)O` [W11→A11, LFB 14-31A2,6,10,11,17F7K16L14R4] (H-PAWRKAFRWAARMLKKAA-OH; N-terminus and C-terminus assumed), the “Mic S. Aureus” value in series [1] (ATCC 25923) is above 1.2 µM. For the same compound, in series [2] (ATCC 25922), the “Mic E-coli” value amounted to 4.6 µM. For the same compound, in series [4], the “fold decrease in activity against Meth A compared to LFB(14-31)m” value is listed as 1.5 fold and the IC50 was 11 µM.
As for `CSCC[C@H](NC(=O)[C@H](CCCNC(=N)N)NC(=O)[C@H](C)NC(=O)[C@H](C)NC(=O)[C@H](C)NC(=O)[C@H](CCCNC(=N)N)NC(=O)[C@H](Cc1ccccc1)NC(=O)[C@H](C)NC(=O)[C@H](CCCCN)NC(=O)[C@H](CCCNC(=N)N)NC(=O)[C@H](Cc1c[nH]c2ccccc12)NC(=O)[C@H](C)NC(=O)[C@@H]1CCCN1)C(=O)N[C@@H](CC(C)C)C(=O)N[C@@H](CCCCN)C(=O)N[C@@H](CCCCN)C(=O)N[C@@H](C)C(=O)N[C@@H](C)C(=O)O` [W9,11→A9,11, LFB 14-31A2,6,9,10,11,17F7K16L14R4] (H-PAWRKAFRAAARMLKKAA-OH), in [1] (ATCC 25923), the “Mic S. Aureus” value was found to be 14.7 µM. In addition, the “Mic E-coli” value in series [2] (ATCC 25922) worked out at 14.7 µM. Further, in the series on human red blood cells, the “cytotoxic / hemolytic activity against red blood cells” value is on record as “no cytotoxic activity” and the EC50 is above 489 µM. In [3], the 50% inhibitory concentration (IC50) is above 489 µM and the “toxicity to fibroblasts” value is “no cytotoxic activity”. In [4], this compound registered a half-maximal inhibitory concentration (IC50) of 110 µM.
Take `CSCC[C@H](NC(=O)[C@H](CCCNC(=N)N)NC(=O)[C@H](Cc1c[nH]c2ccccc12)NC(=O)[C@H](C)NC(=O)[C@H](Cc1c[nH]c2ccccc12)NC(=O)[C@H](CCCNC(=N)N)NC(=O)[C@H](Cc1ccccc1)NC(=O)[C@H](C)NC(=O)[C@H](CCCCN)NC(=O)[C@H](CCCNC(=N)N)NC(=O)[C@H](C)NC(=O)[C@H](C)NC(=O)[C@@H]1CCCN1)C(=O)N[C@@H](CC(C)C)C(=O)N[C@@H](CCCCN)C(=O)N[C@@H](CCCCN)C(=O)N[C@@H](C)C(=O)N[C@@H](C)C(=O)O` [W3→A3, LFB 14-31A2,3,6,10,17F7K16L14R4] (H-PAARKAFRWAWRMLKKAA-OH): in [1] (ATCC 25923), the “Mic S. Aureus” value was determined as 4.6 µM. The “Mic E-coli” value in series [2] (ATCC 25922) was 6.9 µM. For the same compound, in series [3], the “toxicity to fibroblasts” value is reported as “little toxicity against fibroblasts”.
As for (KAAKKAA)3, in the series on E. coli, the “MIC against E. coli” value is 8 µM. In the series with fibroblasts, the “activity against fibroblasts” value is “no measurable activity”. For the same compound, the “activity against human erythrocytes” value with human erythrocytes is given as “no measurable activity”. Besides, in the series on S. aureus, the “MIC against S. aureus” value is 8 µM.
For the compound `CC[C@H](C)[C@H](NC(=O)[C@H](C)NC(=O)[C@H](Cc1c[nH]c2ccccc12)NC(=O)[C@H](CCCNC(=N)N)NC(=O)[C@H](Cc1ccccc1)NC(=O)[C@H](C)NC(=O)[C@H](CCCCN)NC(=O)[C@H](CCCNC(=N)N)NC(=O)[C@H](Cc1c[nH]c2ccccc12)NC(=O)[C@H](C)NC(=O)[C@@H]1CCCN1)C(=O)N[C@@H](CCCNC(=N)N)C(=O)N[C@@H](CCSC)C(=O)N[C@@H](CC(C)C)C(=O)N[C@@H](CCCCN)C(=O)N[C@@H](CCCCN)C(=O)N[C@@H](C)C(=O)N[C@@H](C)C(=O)O` [W11→I11] (H-PAWRKAFRWAIRMLKKAA-OH; N-terminus and C-terminus assumed), the “Mic E-coli” value in series [2] (Table 2) is reported as “⅖”. In addition, the EC50 in the series on human red blood cells stood at 63.6 µM. Further, in series [4], 6 µM corresponded to half-maximal inhibition (IC50).
For the compound `CSCC[C@H](NC(=O)[C@H](CCCNC(=N)N)NC(=O)[C@H](Cc1c[nH]c2ccccc12)NC(=O)[C@H](C)NC(=O)[C@H](C)NC(=O)[C@H](CCCNC(=N)N)NC(=O)[C@H](Cc1ccccc1)NC(=O)[C@H](C)NC(=O)[C@H](CCCCN)NC(=O)[C@H](CCCNC(=N)N)NC(=O)[C@H](Cc1c[nH]c2ccccc12)NC(=O)[C@H](C)NC(=O)[C@@H]1CCCN1)C(=O)N[C@@H](CC(C)C)C(=O)N[C@@H](CCCCN)C(=O)N[C@@H](CCCCN)C(=O)N[C@@H](C)C(=O)N[C@@H](C)C(=O)O` [W9→A9, LFB 14-31A2,6,9,10,17F7K16L14R4] (H-PAWRKAFRAAWRMLKKAA-OH; N-terminus and C-terminus assumed), the “Mic S. Aureus” value in [1] (ATCC 25923) is 2.4 µM. In addition, in [2] (ATCC 25922), the “Mic E-coli” value was determined as 4.6 µM.
